Results published in ChEMBL document CHEMBL4265943, “Design and synthesis of potent dual inhibitors of JAK2 and HDAC based on fusing the pharmacophores of XL019 and vorinostat” (Eur J Med Chem, 2018).

Columns and labels:
[1] = Selectivity index, ratio of CC50 for human AC10 cells to IC50 for human HEL 92.1.7 cells; assay type: toxicity; details: AC10 cells (CC50) and HEL 92.1.7 cells (IC50)
[2] = Selectivity index, ratio of CC50 for human AC10 cells to IC50 for human Jurkat cells; assay type: toxicity; details: AC10 cells (CC50) and Jurkat cells (IC50)
HCT-116 = assay: Antiproliferative activity against human HCT116 cells after 72 hrs by MTT assay; assay type: functional, cell-based; details: HCT-116, 72 h
[3] = Selectivity index, ratio of CC50 for human AC10 cells to IC50 for human HCT116 cells; assay type: toxicity; details: AC10 cells (CC50) and HCT116 cells (IC50)
[4] = Selectivity index, ratio of CC50 for mouse TAMH cells to IC50 for human KMS-12-BM cells; assay type: toxicity; details: TAMH cells (CC50) and KMS-12-BM cells (IC50)
[5] = Selectivity index, ratio of CC50 for human AC10 cells to IC50 for human MDA-MB-231 cells; assay type: toxicity; details: AC10 cells (CC50) and MDA-MB-231 cells (IC50)
Histone deacetylase 1 = Histone deacetylase 1 (Homo sapiens, UniProt Q13547); assay: Inhibition of HDAC1 (unknown origin) using Arg-His-Lys-Lys(Ac) as substrate preincubated with enzyme followed by substrate addition for 2 hrs and measured for 1.5 hrs at 15 mins time interval by fluorescence assay
Histone deacetylase 1, sequence (Q13547 whole entry): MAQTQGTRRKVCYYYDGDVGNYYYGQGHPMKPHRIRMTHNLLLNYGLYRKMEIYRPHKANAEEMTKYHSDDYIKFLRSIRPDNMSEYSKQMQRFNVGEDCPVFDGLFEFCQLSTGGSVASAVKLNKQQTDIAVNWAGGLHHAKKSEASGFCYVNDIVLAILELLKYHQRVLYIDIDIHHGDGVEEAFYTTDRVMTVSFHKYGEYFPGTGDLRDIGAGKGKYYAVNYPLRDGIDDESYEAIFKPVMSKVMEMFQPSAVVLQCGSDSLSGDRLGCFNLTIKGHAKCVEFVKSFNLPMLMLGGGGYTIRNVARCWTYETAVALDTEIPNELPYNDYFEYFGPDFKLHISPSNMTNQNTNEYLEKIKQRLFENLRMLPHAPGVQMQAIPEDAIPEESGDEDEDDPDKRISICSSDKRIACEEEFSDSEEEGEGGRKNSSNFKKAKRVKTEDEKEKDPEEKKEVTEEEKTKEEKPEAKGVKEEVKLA

[6] = Selectivity index, ratio of CC50 for human AC10 cells to IC50 for human PC3 cells; assay type: toxicity; details: AC10 cells (CC50) and PC3 cells (IC50)
[7] = Selectivity index, ratio of CC50 for mouse TAMH cells to IC50 for human HEL 92.1.7 cells; assay type: toxicity; details: TAMH cells (CC50) and HEL 92.1.7 cells (IC50)
[8] = Selectivity index, ratio of CC50 for human AC10 cells to IC50 for human MCF7 cells; assay type: toxicity; details: AC10 cells (CC50) and MCF7 cells (IC50)
[9] = Selectivity index, ratio of CC50 for mouse TAMH cells to IC50 for human HCT116 cells; assay type: toxicity; details: TAMH cells (CC50) and HCT116 cells (IC50)
[10] = Antiproliferative activity against mouse TAMH cells after 72 hrs by MTT assay; assay type: cell-based
MCF7 = assay: Antiproliferative activity against human MCF7 cells after 72 hrs by MTT assay; assay type: functional, cell-based; details: MCF7, 72 h
[11] = Selectivity index, ratio of CC50 for mouse TAMH cells to IC50 for human XG6 cells; assay type: toxicity; details: TAMH cells (CC50) and XG6 cells (IC50)
[12] = Antiproliferative activity against human XG6 cells after 72 hrs by MTT assay; assay type: functional, cell-based; details: XG6, 72 h
Jurkat = assay: Antiproliferative activity against human Jurkat cells after 72 hrs by MTT assay; assay type: functional, cell-based
[13] = Selectivity index, ratio of CC50 for mouse TAMH cells to IC50 for human PC3 cells; assay type: toxicity; details: TAMH cells (CC50) and PC3 cells (IC50)
[14] = Selectivity index, ratio of CC50 for human AC10 cells to IC50 for human KMS-12-BM cells; assay type: toxicity; details: AC10 cells (CC50) and KMS-12-BM cells (IC50)
[15] = target: T1, Tyrosine-protein kinase JAK2 (Homo sapiens, UniProt O60674); assay: Inhibition of human JAK2 using poly(Glu:Tyr)(4:1) as substrate preincubated for 20 mins followed by [gamma33P]ATP addition measured after 120 mins by ion exchange filter paper method
T1 sequence (O60674 whole entry): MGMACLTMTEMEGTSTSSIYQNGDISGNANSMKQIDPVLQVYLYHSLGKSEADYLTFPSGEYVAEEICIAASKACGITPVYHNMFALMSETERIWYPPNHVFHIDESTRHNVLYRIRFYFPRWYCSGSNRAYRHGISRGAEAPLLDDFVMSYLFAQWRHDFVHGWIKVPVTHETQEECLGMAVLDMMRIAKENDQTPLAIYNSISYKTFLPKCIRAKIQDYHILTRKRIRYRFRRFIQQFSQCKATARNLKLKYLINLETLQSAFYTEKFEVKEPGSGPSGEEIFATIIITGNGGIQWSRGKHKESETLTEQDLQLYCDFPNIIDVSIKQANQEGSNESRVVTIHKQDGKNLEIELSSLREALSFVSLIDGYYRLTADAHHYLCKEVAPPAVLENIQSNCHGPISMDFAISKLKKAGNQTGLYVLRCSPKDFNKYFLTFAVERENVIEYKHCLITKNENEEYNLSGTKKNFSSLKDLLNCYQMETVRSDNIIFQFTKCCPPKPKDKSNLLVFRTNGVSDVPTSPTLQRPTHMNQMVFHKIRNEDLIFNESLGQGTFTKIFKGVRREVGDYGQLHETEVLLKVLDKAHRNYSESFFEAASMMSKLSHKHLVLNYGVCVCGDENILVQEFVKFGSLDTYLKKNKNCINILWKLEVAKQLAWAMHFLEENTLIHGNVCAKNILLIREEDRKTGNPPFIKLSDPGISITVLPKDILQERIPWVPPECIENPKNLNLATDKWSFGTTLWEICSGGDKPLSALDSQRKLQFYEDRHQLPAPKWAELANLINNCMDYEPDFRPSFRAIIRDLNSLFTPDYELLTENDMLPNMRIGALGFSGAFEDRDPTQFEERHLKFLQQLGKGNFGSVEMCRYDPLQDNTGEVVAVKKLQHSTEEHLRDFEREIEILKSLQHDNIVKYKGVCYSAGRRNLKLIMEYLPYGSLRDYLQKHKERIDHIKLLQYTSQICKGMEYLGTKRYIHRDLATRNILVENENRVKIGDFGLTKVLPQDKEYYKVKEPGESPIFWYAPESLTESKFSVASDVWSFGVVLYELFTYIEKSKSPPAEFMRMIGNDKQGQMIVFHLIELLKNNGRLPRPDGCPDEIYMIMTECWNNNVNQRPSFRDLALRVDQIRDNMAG

[16] = Antiproliferative activity against human AC10 cells after 72 hrs by MTT assay; assay type: cell-based
[17] = Selectivity index, ratio of CC50 for mouse TAMH cells to IC50 for human Jurkat cells; assay type: toxicity; details: TAMH cells (CC50) and Jurkat cells (IC50)
KMS-12-BM = assay: Antiproliferative activity against human KMS-12-BM cells after 72 hrs by MTT assay; assay type: functional, cell-based
HEL 92.1.7 = assay: cells; assay type: functional, cell-based; details: Homo sapiens, HEL 92.1.7, 72 h
Description: Antiproliferative activity against human HEL 92.1.7 cells after 72 hrs by MTT assay

MDA-MB-231 = assay: Antiproliferative activity against human MDA-MB-231 cells after 72 hrs by MTT assay; assay type: functional, cell-based; details: MDA-MB-231, 72 h
[18] = target: T2, Protein deacetylase HDAC6 (Homo sapiens, UniProt Q9UBN7); assay: Inhibition of HDAC6 (unknown origin) using Arg-His-Lys-Lys(Ac) as substrate preincubated with enzyme followed by substrate addition for 2 hrs and measured for 1.5 hrs at 15 mins time interval by fluorescence assay
T2 sequence (Q9UBN7 whole entry): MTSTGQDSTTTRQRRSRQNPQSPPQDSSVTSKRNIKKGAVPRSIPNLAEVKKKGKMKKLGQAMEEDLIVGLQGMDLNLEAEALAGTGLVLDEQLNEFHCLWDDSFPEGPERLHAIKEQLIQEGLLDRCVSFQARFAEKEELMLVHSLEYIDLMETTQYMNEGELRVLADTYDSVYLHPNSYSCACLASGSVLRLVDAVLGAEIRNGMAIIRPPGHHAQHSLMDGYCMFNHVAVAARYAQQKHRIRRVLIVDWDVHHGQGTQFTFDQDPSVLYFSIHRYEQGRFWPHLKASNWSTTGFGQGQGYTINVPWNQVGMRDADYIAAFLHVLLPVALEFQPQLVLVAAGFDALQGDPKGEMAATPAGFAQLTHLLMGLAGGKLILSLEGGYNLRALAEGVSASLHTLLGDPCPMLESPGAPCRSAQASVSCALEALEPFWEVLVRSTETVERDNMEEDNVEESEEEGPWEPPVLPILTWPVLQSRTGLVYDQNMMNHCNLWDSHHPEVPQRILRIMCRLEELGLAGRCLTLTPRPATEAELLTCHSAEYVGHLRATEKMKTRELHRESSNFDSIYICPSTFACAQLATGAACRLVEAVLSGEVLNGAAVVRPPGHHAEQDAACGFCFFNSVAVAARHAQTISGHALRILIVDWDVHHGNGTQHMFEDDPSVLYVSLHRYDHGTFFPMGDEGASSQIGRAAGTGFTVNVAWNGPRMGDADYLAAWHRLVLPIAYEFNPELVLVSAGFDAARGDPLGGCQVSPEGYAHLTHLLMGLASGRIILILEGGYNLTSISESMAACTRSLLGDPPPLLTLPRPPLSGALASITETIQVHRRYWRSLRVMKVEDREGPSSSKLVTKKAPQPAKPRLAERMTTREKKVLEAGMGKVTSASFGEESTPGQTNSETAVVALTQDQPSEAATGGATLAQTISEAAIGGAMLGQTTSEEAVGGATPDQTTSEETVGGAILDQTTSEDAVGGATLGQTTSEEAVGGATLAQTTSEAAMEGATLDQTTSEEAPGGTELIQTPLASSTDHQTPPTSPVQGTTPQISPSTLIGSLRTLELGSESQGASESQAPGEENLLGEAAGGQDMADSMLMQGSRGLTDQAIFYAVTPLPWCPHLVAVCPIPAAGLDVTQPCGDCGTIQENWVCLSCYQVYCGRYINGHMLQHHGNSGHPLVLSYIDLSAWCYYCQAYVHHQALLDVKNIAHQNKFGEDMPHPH

[19] = Selectivity index, ratio of CC50 for human AC10 cells to IC50 for human XG6 cells; assay type: toxicity; details: AC10 cells (CC50) and XG6 cells (IC50)
[20] = Selectivity index, ratio of CC50 for mouse TAMH cells to IC50 for human MDA-MB-231 cells; assay type: toxicity; details: TAMH cells (CC50) and MDA-MB-231 cells (IC50)
PC-3 = assay: Antiproliferative activity against human PC3 cells after 72 hrs by MTT assay; assay type: functional, cell-based; details: PC-3, 72 h
[21] = Selectivity index, ratio of CC50 for mouse TAMH cells to IC50 for human MCF7 cells; assay type: toxicity; details: TAMH cells (CC50) and MCF7 cells (IC50)
[22] = target: T1, Tyrosine-protein kinase JAK2; assay: Inhibition of human JAK2 at 10 uM using poly(Glu:Tyr)(4:1) as substrate preincubated for 20 mins followed by [gamma33P]ATP addition measured after 120 mins by ion exchange filter paper method relative to control

Row | IC50 (HCT-116) [nM] | IC50 (Histone deacetylase 1) [nM] | IC50 (MCF7) [nM] | IC50 (Jurkat) [nM] | IC50 [15] [nM] | IC50 (HEL 92.1.7) [nM] | IC50 (MDA-MB-231) [nM] | IC50 [18] [nM] | IC50 (PC-3) [nM] | Structure (SMILES) | selectivity ratio [1] | selectivity ratio [2] | selectivity ratio [3] | selectivity ratio [4] | selectivity ratio [5] | selectivity ratio [6] | selectivity ratio [7] | CC50 at 72 h [10] [nM] | IC50 [12] [nM] | CC50 at 72 h [16] [nM] | IC50 (KMS-12-BM) [nM] | also measured
1 | 790 | 637 | 2550 | 1190 | 3.4 | 1830 | 1240 | 2.4 | 1660 | CC(=O)Nc1ccc(-c2ccnc(Nc3cccc(OCCCCCC(=O)NO)c3)n2)cc1 | 1.61 | 1.35 | 3.71 | 44.3 | 2.36 | 1.77 | 4.85 | 8860 | 3700 | 2930 | 200 | selectivity ratio [8]: 1.15; selectivity ratio [9]: 11.2; selectivity ratio [11]: 2.39; selectivity ratio [13]: 5.34; selectivity ratio [14]: 14.7; selectivity ratio [17]: 7.45; selectivity ratio [19]: 0.79; selectivity ratio [20]: 7.15; selectivity ratio [21]: 3.47
2 | 1150 | 89 | 2010 | 1030 | – | 1360 | 1020 | 1.3 | 1510 | CC(=O)Nc1ccc(-c2ccnc(Nc3ccc(OCCCCCC(=O)NO)cc3)n2)cc1 | – | – | – | – | – | – | – | 7390 | 1070 | 5740 | 70 | –
3 | – | – | – | – | 27.4 | – | – | – | – | CC(=O)Nc1ccc(-c2ccnc(Nc3ccccc3)n2)cc1 | – | – | – | – | – | – | – | – | – | – | – | inhibition [22]: 96.4%

Continued, compound first:

Row | Structure (SMILES) | IC50 (HCT-116) [nM] | IC50 (Histone deacetylase 1) [nM] | IC50 (MCF7) [nM] | IC50 (Jurkat) [nM] | IC50 [15] [nM] | IC50 (HEL 92.1.7) [nM] | IC50 (MDA-MB-231) [nM] | IC50 [18] [nM] | IC50 (PC-3) [nM] | selectivity ratio [1] | selectivity ratio [2] | selectivity ratio [3] | selectivity ratio [4] | selectivity ratio [5] | selectivity ratio [6] | selectivity ratio [7] | CC50 at 72 h [10] [nM] | IC50 [12] [nM] | CC50 at 72 h [16] [nM] | IC50 (KMS-12-BM) [nM] | also measured
4 | CC(=O)Nc1ccc(-c2nc(Nc3cccc(OCCCCCCCC(=O)NO)c3)ncc2C)cc1 | 18400 | 4580 | 30800 | 9990 | 2.93 | 8960 | 11400 | 9.7 | 32800 | 2.31 | 0.23 | 1.12 | 17 | 1.81 | 0.63 | 1.02 | 9140 | 8300 | 20100 to 20700 | 540 | selectivity ratio [8]: 0.67; selectivity ratio [9]: 0.5; selectivity ratio [11]: 1.1; selectivity ratio [13]: 0.28; selectivity ratio [14]: 38.3; selectivity ratio [17]: 0.91; selectivity ratio [19]: 2.49; selectivity ratio [20]: 0.8; selectivity ratio [21]: 0.3
5 | CC(=O)Nc1ccc(-c2ccnc(Nc3ccc(OCCCCCCCC(=O)NO)cc3)n2)cc1 | 1800 | 1700 | 5530 | 3480 | – | 3920 | 5330 | 14 | 4730 | – | – | – | – | – | – | – | 9330 | 10200 | 3500 | 1960 | –
6 | CC(=O)Nc1ccc(-c2ccnc(Nc3cccc(OCCCCCCCC(=O)NO)c3)n2)cc1 | 1510 | 1040 | 1220 | > 10000 | 17 | 3340 | 3610 | 6.7 | 1640 | > 30 | 3 | > 66.2 | 4.07 | > 27.7 | > 61 | 0.83 | 2770 | 7220 | > 100000 | 680 | selectivity ratio [8]: > 82; selectivity ratio [9]: 1.83; selectivity ratio [11]: 0.38; selectivity ratio [13]: 1.69; selectivity ratio [14]: > 147; selectivity ratio [17]: < 0.28; selectivity ratio [19]: > 13.9; selectivity ratio [20]: 0.77; selectivity ratio [21]: 2.27
7 | CC(=O)Nc1ccc(-c2ccnc(NCCc3ccccc3)n2)cc1 | – | – | – | – | – | – | – | – | – | – | – | – | – | – | – | – | – | – | – | – | inhibition [22]: 6.22%
8 | CC(=O)Nc1ccc(-c2ccnc(NCc3ccccc3)n2)cc1 | – | – | – | – | – | – | – | – | – | – | – | – | – | – | – | – | – | – | – | – | inhibition [22]: 3.85%
9 | CC(=O)Nc1ccc(-c2ccnc(Nc3ccc(OCCCCCCC(=O)NO)cc3)n2)cc1 | 990 | 145 | 810 | 1770 | 23 | 1510 | 1560 | 3 | 1470 | 1.58 | 0.89 | 2.41 | 36.6 | 1.53 | 1.63 | 2.42 | 3660 | 2080 | 2390 | 100 | selectivity ratio [8]: 2.95; selectivity ratio [9]: 3.7; selectivity ratio [11]: 1.76; selectivity ratio [13]: 2.49; selectivity ratio [14]: 23.9; selectivity ratio [17]: 2.07; selectivity ratio [19]: 1.15; selectivity ratio [20]: 2.35; selectivity ratio [21]: 4.52
10 | CC(=O)Nc1ccc(-c2ccnc(Nc3cccc(OCCCCCCC(=O)NO)c3)n2)cc1 | 660 | 83 | 2420 | 1060 | 3.6 | 970 | 1760 | 1.8 | 1890 | 3.08 | 2.92 | 4.53 | 20.1 | 1.7 | 1.58 | 7.24 | 7020 | 4690 | 2990 | 350 | selectivity ratio [8]: 1.24; selectivity ratio [9]: 10.6; selectivity ratio [11]: 1.5; selectivity ratio [13]: 3.71; selectivity ratio [14]: 8.54; selectivity ratio [17]: 6.65; selectivity ratio [19]: 0.64; selectivity ratio [20]: 3.99; selectivity ratio [21]: 2.9
